Experimental data reported in patent US20060127400A1, “Activation of regulatory T cells by alpha-melanocyte stimulating hormone” (THE SCHEPENS EYE RESEARCH INSTITUTE, INC., priority 1999, published 2006).
No end group written: not given here.

Legend:
EAU = conditions: direct injections into eyes of mice; cited from earlier work
CD3ζ = experiment: tyrosine phosphorylation of CD3ζ, immunoprecipitation and anti-phosphotyrosine immunoblot; assay type: cell-based, mouse
Procedure: Immunoprecipitation and Immunoblotting. Enriched primed T cells (2×10^6 cells) in a 24 well Corning plate were TCR-stimulated with 2C11 in the presence of α-MSH (30 pg/ml) under serum-free conditions for 15 minutes. The T cells were collected, placed in a microcentrifuge tube and washed once with 10 mM Tris buffered saline (TBS) and lysed for 30 minutes in 100 μl of ice cold lysate buffer (10 mM TBS, 1% NP-40, 0.5% sodium deoxycholate, 0.1% SDS, 100 μg/ml phenylmethylsulfonyl fluoride (PMSF), 60 μg/ml Aprotinin, and 1 mM sodium orthovanadate). The cells were passed through a 21 gauge needles three times, and an additional 2 μl of 10 mg/ml PMSF was added. The tubes were incubated for an additional 30 minutes on ice and were centrifuged for 20 minutes, 4° C., 13,000×g. The supernatant was collected and used as total cellular lysate. The protein concentration was measured, and added to equal amounts of protein lysate were 20 μg/ml anti-CD3ζ antibody, or anti-CD3ε antibody plus rabbit anti-hamster IgG antibody and incubated overnight at 4° C. The rabbit anti-hamster IgG was needed for the CD3ε immunoprecipitation, since much of the CD3ε was bound by 2C11 a hamster anti-mouse […] and hamster antibody weakly binds protein-G. Protein-G sepharose beads (Pharmacia, Piscataway, N.J.) were added to the antibody containing lysates and incubated for 1 hour at room temperature with end over end agitation. The beads were centrifuged and washed 4 times with 10 mM TBS containing 0.5% sodium deoxycholate. After the final wash the beads were resuspended in 20 μl of distilled water and 20 μl non-reducing SDS Tris-glycine sample buffer (Novex, San Diego, Calif.), boiled for 5 minutes and applied into two wells (20 μl) of a 8-16% Tris-glycine polyacrylamide gel (Novex).
Following electrophoresis in a Novex Xcell II minicell and blot module, the proteins were transferred from the gel onto a nitrocellulose membrane (Novex) by electroblotting. The membrane was blocked with 1% BSA in 0.01 M TBS for 1 hour room temperature. The blocked membrane was placed in a sealable bag containing 5 ml of alkaline-phosphatase conjugated anti-phosphotyrosine antibody PY20 diluted 1/2000 in 1% BSA-TBS buffer. The membrane was incubated overnight at room temperature. The PY20 blotted membrane was washed 3 times with wash buffer containing 1% BSA-TBS and 0.05% Tween-20 and incubated with alkaline phosphatase substrate NBT-BCIP (Sigma Chemical) until bands appeared. The membrane was washed with distilled water. In parallel, some lanes on the membrane were immunoblotted with anti-CD3ζ antibody and alkaline phosphatase conjugated anti-mouse IgG (Sigma Chemical) to detect the relative mobility of CD3ζ protein. Membranes were digitally photographed and analyzed using NIH Image software to integrate the band intensities relative to band area minus background. […]
The enriched primed T cells (2×10^6 cells) were incubated with anti-CD3 in the presence of α-MSH (30 pg/ml) for 15 minutes. […] The immunoprecipitates were analyzed by non-reducing SDS-PAGE (on a 8-16% gradient gel), followed by transfer to a nitrocellulose filter and immunoblotting with anti-phosphotyrosine antibody: (1) Unstimulated primed T cells treated with α-MSH; (2) Unstimulated primed T cells incubated in media alone; (3) Enriched primed T cells TCR-stimulated in the absence of α-MSH; (4) Enriched primed T cells TCR-stimulated in the presence of α-MSH. […]

α-melanocyte stimulating hormone (SYSMEHFRWGKPV; not fully specified; ends and bridges not checked; UniProt P01189 138-150, looked up) [α-MSH, synthetic α-MSH (Peninsula Laboratories); thirteen-amino acid neuropeptide derived from POMC]
severity of inflammation and recovery in EAU (EAU): suppress the severity of the inflammation and accelerate recovery
increase in CD3ζ tyrosine phosphorylation (CD3ζ; TCR-stimulated primed T cells, versus stimulated in the absence of α-MSH): 6.7 fold
relative intensity of phosphotyrosine band, CD3ζ (CD3ζ; TCR-stimulated primed T cells, α-MSH 30 pg/ml, 15 minutes (lane 4; without α-MSH 10)): 67
overall level of tyrosine phosphorylation of CD3ζ (CD3ζ; TCR-stimulated primed T cells, α-MSH 30 pg/ml, 15 minutes, Example III (FIG. 18A)): no significant change
stimulation of tyrosine phosphorylation of CD3ζ dimers (CD3ζ; unstimulated primed T cells): 4 fold
relative intensity of phosphotyrosine band, CD3ζ (CD3ζ; unstimulated primed T cells, α-MSH 30 pg/ml, 15 minutes (lane 1; media alone 1)): 4
